Key:
AIF = assay: Western blot of AIF in nuclear extracts of NMDA/tPA treated neurons; type: cell-based, mouse; details: for AIF nuclear translocation in the presence of tPA (NMDA/tPA injury): effect of APC or caspase inhibitor
Experimental: (§1) Primary neuronal cultures were prepared from fetal C57BU6J mice as we have previously described^23. Cultures were maintained in serum-free NEUROBASAL medium plus B27 supplement (Gibco BRL, Rockville, Md.) in a humidified 5% CO2 incubator at 37° C. for 14 days before 3 hr to 24 hr treatment with tPA (20 μg/ml) alone, NMDA (25 μM)/5 μM glycine, or tPA plus NMDA. Ac-DEVD-CHO (50 μM), z-IETD-fmk (20 μM), or z-LEHD-fmk (5 μM) was applied 3 hr prior to tPA/NMDA treatment. Mouse recombinant APC (20 nM) was added 30 min before tPA/NMDA treatment.
(§2) Whole cellular extracts, nuclear proteins, or cell membrane fractions were prepared as we have previously described^23. The relative abundance of each protein was determined by scanning densitometry using β-actin as an internal control. Data from multiple Western blots (n=3-5) were averaged for statistical analysis.

caspase-3 [1] = assay: Caspase-3 activity in BEC lysate; type: cell-based, human; details: for increase in caspase-3 activity compared to hypoxia alone: tPA plus hypoxia; for inhibition in caspase-3 activation in hypoxic BEC: absence of tPA; for inhibition in caspase-3 activation in hypoxic BEC / inhibition of caspase-3 activation in hypoxic BEC: z-IETD-fmk 10 μM, z-LEHD-fmk 15 μM applied 2 hr prior; for inhibition of caspase-3 activation in hypoxic BEC: presence of tPA
Experimental: (§3) Primary human BEC were isolated from rapid autopsies from neurologically normal young individuals after trauma and cultured as we have previously described^20. Cells were maintained in serum-free Dulbeco's Modified Eagle Medium and exposed for 1 hr to 16 hr to tPA (20 μg/ml) under normoxic conditions (20% oxygen, 5 mM glucose), hypoxia (<2% oxygen, no glucose), or to tPA plus hypoxia. Hypoxia was induced using an anaerobic chamber (Form a Scientific, Holbrook, N.Y.)^20. The levels of O2 were monitored by O2 Fyrite (Form a Scientific). z-IETD-fmk (10 μM) or z-LEHD-fmk (15 μM) was applied 2 hr prior to tPA/hypoxia treatment. Human APC (10 nM to 600 nM) was added at the time of tPA/hypoxia treatment. Caspase-3, -8 or -9 activity was determined in the presence of 400 nM APC.
(§4) BEC or cortical neuron lysate was incubated at 37° C. with caspase-3 (DEVD-pNA), caspase-8 (IETD-pNA) (ApoAlert caspase assay kit; Clontech, Palo Alto, Calif.), or caspase-9 (Ac-LEHD-pNA; Chemicon; Temecula, Calif.) substrate. Substrate hydrolysis was determined as absorbance change at 405 nm in a microplate reader^23. Enzymatic activity was expressed in arbitrary units per mg of protein.

caspase-8 [2] = assay: Caspase-8 activity in cortical neuron lysate; type: cell-based, mouse; details: for tPA-induced increase in caspase-8 activation: tPA/NMDA treated neurons, APC 20 nM, z-IETD-fmk 20 μM, z-LEHD-fmk 5 μM
Experimental: as §1, §4

human BEC [3] = assay: tPA/hypoxia in human BEC: cell injury by LDH release; type: cell-based; details: for LDH release into the medium from ischemic BEC: tPA 20 μg/ml plus hypoxia/aglycemia
Experimental: as §3
(§5) Cell injury in BEC was detected by the release of LDH (LDH assay, Sigma). The Hoechst dye (Hoechst 33,342, Sigma) and in situ terminal deoxynucleotidyl transferase-mediated digoxigenin-dUTP nick-end labeling (TUNEL) (Phoenix Flow Systems, San Diego, Calif.) assays were performed on acetone-fixed BEC or paraformaldexyde-fixed neurons. Images were visualized using a Nikon TE2000-U microscope.

[4] = target: T1, NR1 or the NR2A subunit of the NMDA receptor (Mus musculus, UniProt P35436+P35438); assay: Western blot of NR1 and NR2A subunits in membrane fractions after tPA; type: cell-based; details: 24 h after treatment with tPA
T1 construct: Western blot analysis of NR1 and NR2A subunits in membrane fractions 24 h after treatment with tPA; endogenous in cells; host or cells: primary cortical neurons from fetal C57BL/6J mice
Experimental: as §1, §2

caspase-9 [5] = assay: Caspase-9 activity in BEC lysate; type: cell-based, human; details: tPA 20 μg/ml plus hypoxia
Experimental: as §3, §4

caspase-9 [6] = assay: Caspase-9 activity in cortical neuron lysate; type: cell-based, mouse
Experimental: as §1, §4

caspase-8 [7] = assay: Caspase-8 activity in BEC lysate; type: cell-based, human; details: tPA plus hypoxia, at 1 hr; remained elevated over 16 hr vs hypoxia alone
Experimental: as §3, §4

mouse stroke model = assay: In vivo stroke model (45 min MCA occlusion/24 hr reperfusion); details: tPA 10 mg/kg iv
Experimental: Protocols were approved by the Animal Care Committee at the University of Rochester using National Institutes of Health guidelines. Vehicle, tPA (10 mg/kg, 10% bolus/90% infusion), or tPA plus mouse recombinant APC (0.02 mg/kg to 1 mg/kg, 50% bolus/50% infusion) were administered via the femoral vein using separate intravenous lines and our previously described mouse stroke model^19,20 modified to 45 min MCA occlusion/24 hr reperfusion. tPA was infused during the last 10 min of MCA occlusion and for 20 min into reperfusion. APC was infused either simultaneously with tPA, after tPA infusion, or before tPA infusion. The dose of tPA used here has been frequently used in rodents and is considered to be equivalent to the therapeutic dose in humans^12,13,44,50. CBF was monitored by laser Doppler flowmetry (Transonic Systems)^19. Arterial blood gasses were measured^19. Neurological examinations were performed at 24 hr and scored: no neurological deficit (O), failure to extend left forepaw fully (1), turning to left (2), circling to left (3), unable to walk spontaneously (4), or stroke-related death (5). Neuropathological analysis was performed at 24 hr. Unfixed 1-mm coronal brain slices at the level of optic chiasm were incubated in 2% triphenyltetrazolium chloride in phosphate buffer (pH 7.4). Brain injury, infarct, and edema volumes were determined as previously described^19,20. Fibrin deposition was quantified by Western blotting with anti-fibrin II antibody (1:500, NYB-T2G1; Accurate Chemical Scientific Corp.)^19,20,30 and leukocytes were stained with CD11b antibody (1:250, DAKO Corp.)^19,20. Hemoglobin was determined by a spectrophotometric assay using Drabkin's reagent (Sigma) as we have previously described^19.

mouse cortical neurons = assay: tPA/NMDA-induced apoptosis in neurons; type: cell-based
Experimental: as §1, §5

p53, Bax, Bcl-2 = assay: Western blot of p53, Bcl-2 and Bax in NMDA-treated neurons; type: cell-based, mouse; details: tPA plus NMDA vs NMDA
Experimental: as §1, §2

MMP-9 = assay: MMP gelatin zymography of BEC conditioned medium; type: cell-based, human; details: tPA 20 μg/ml, hypoxic BEC, 4 hr
Experimental: The conditioned medium from BEC exposed to tPA (20 μg/ml) or hypoxia for 4 hr, in the absence or presence of human APC (50 nM to 1,000 nM), was analyzed by gelatin zymography as previously described^11. […] MMP-9 activity was quantified as fold increase compared with normoxic controls.

caspase-3 [8] = assay: Caspase-3 activity in cortical neuron lysate; type: cell-based, mouse
Experimental: as §1, §4

human BEC [9] = assay: tPA/hypoxia in human BEC: apoptosis (TUNEL); type: cell-based
Experimental: as §3, §5

Ac-DEVD-CHO
AIF nuclear translocation in the presence of tPA (NMDA/tPA injury) (AIF): blocked

tPA: Human recombinant tPA (alteplase, Genentech); in some in vitro studies human recombinant tPA from Sigma
increase in caspase-3 activity compared to hypoxia alone (caspase-3 [1]; at 4 hr): 2.8 fold
increase in caspase-3 activity compared to hypoxia alone (caspase-3 [1]; within 16 hr): > 3.0 fold
caspase-8 in neurons, tPA/NMDA compared to NMDA alone (caspase-8 [2]; tPA 20 μg/ml plus NMDA 25 μM): robust activation
activation of caspase-8 (caspase-8 [2]; tPA alone, no NMDA): did not affect
LDH release into the medium from ischemic BEC (human BEC [3]; 2 hr, background values in the absence of tPA): 50%
LDH release into the medium from ischemic BEC (human BEC [3]; 4 hr, 57% in the absence of tPA): 95%
LDH release from normoxic BEC (human BEC [3]; tPA alone, normoxia): did not affect
proteolytic effect on the NMDA receptor (NR1, NR2A subunit) [4]: failed to cleave
caspase-9 activity in hypoxic BEC relative to hypoxia alone (caspase-9 [5]): did not produce a significant increase
caspase-9 activation, tPA/NMDA compared to NMDA alone (caspase-9 [6]; tPA 20 μg/ml plus NMDA 25 μM): did not alter
activation of caspase-9 (caspase-9 [6]; tPA alone, no NMDA): did not affect
activation of caspase-8 in ischemic BEC (caspase-8 [7]): early and sharp increase
improvement of post-ischemic cerebral blood flow (CBF) vs vehicle (mouse stroke model): 35%
increase in the level of hemoglobin in the ischemic hemisphere (mouse stroke model): greater than 3.0 fold
ischemic brain fibrin deposition (mouse stroke model): background level
increase of volume of edema compared to controls (mouse stroke model; 24 hr reperfusion): 155%
increase of volume of infarction compared to controls (mouse stroke model; 24 hr reperfusion): 75%
volume of cerebral injury compared to controls (mouse stroke model; 24 hr reperfusion): almost doubled
motor neurological score (mouse stroke model; 24 hr, controls 2.3, scale 0-5): 3.5
increase of brain accumulation of leukocytes (mouse stroke model; CD11b-positive leukocytes): about 65%
mice with substantial hemorrhage (mouse stroke model; MCA stroke model): 6/6
number of apoptotic neurons (mouse cortical neurons; tPA 20 μg/ml, 24 hr after exposure to NMDA, vs NMDA alone): doubles
effect on neuronal cells (mouse cortical neurons; tPA alone, no NMDA): did not affect
NMDA-mediated increases in p53 and Bax expression, decrease in Bcl-2 expression (p53, Bax, Bcl-2): did not affect
increase of nuclear translocation of AIF in the presence of NMDA (AIF; tPA plus NMDA vs NMDA): 50%
potentiation of hypoxia-induced MMP-9 activation (MMP-9): about 2.0 fold
caspase-3 activation relative to NMDA alone (caspase-3 [8]; tPA 20 μg/ml plus NMDA 25 μM): increased
activation of caspase-3 (caspase-3 [8]; tPA alone, no NMDA): did not affect
number of TUNEL-positive hypoxic BEC (human BEC [9]; tPA plus hypoxia, 4 hr, 60% for hypoxia alone): 100%

z-IETD-fmk
inhibition in caspase-3 activation in hypoxic BEC (caspase-3 [1]): less than 15%
inhibition of caspase-3 activation in hypoxic BEC (caspase-3 [1]): greater than 95%
tPA-induced increase in caspase-8 activation (caspase-8 [2]): abolished
tPA-induced apoptosis in NMDA-treated neurons (mouse cortical neurons; discussion summary): abolished
AIF nuclear translocation in the presence of tPA (NMDA/tPA injury) (AIF): blocked
tPA-induced apoptosis in ischemic BEC (human BEC [9]; discussion summary): abolished

z-LEHD-fmk
inhibition in caspase-3 activation in hypoxic BEC (caspase-3 [1]): greater than 85%
inhibition of caspase-3 activation in hypoxic BEC (caspase-3 [1]): only slightly inhibited
tPA-induced increase in caspase-8 activation (caspase-8 [2]): without effect
AIF nuclear translocation in the presence of tPA (NMDA/tPA injury) (AIF): much less effective
reduction of caspase-3 activation in cells treated with NMDA alone (caspase-3 [8]; NMDA alone, no tPA, z-LEHD-fmk 5 μM): greater than 80%

Source: US20080305100A1, “Activated Protein C Inhibits Undesirable Effects of Plasminogen Activator in the Brain” (priority 2004, published 2008)
